Test results: US20080038809A1, “ISOLATED LECTIN POLYPEPTIDES CONSISTING OF TRUNCATED […] UDP-GalNAc:POLYPEPTIDE N- ACETYLGALACTOSAMINYLTRANSFERASES” (GLYCOZYM APS, priority 2002, published 2008)
Entries after “also recorded” stand apart in the source; their conditions may differ.

Assays:
[1] = tested on: MUC1 in CHO1d1D/MUC1F-clone2 cells; test: MUC1 expression in cell lysates, immunoprecipitation and SDS-PAGE western blot (FIGS. 12-15); format: cell-based, Chinese Hamster; details: 2 mM, 48 hours
Procedure: FIG. 12 is an SDS-PAGE Western analysis of GalNAcα-benzyl inhibition of MUC1 expression in CHO 1d1D cells stably transfected with a full coding MUC1 construct. […] Cells were further treated with 2 mM GalNAcα-benzyl (lanes 1, 4, 7, 10), 2 mM GlcNAcα-benzyl (lanes 2, 5, 8, 11) or no inhibitor (lanes 3, 6, 9, 12). Cells were washed and lysed at 24 or 48 hours and the lysates subjected to immunoprecipitation with monoclonal antibody HMFG2, which broadly recognize MUC1 glycoforms. Immunoprecipitates were analysed by SDS-PAGE and western blot using HMFG2 antibody to detect MUC1 expression. Lane M indicates molecular markers with assigned mw. Lane C includes a control MUC1 180-mer tandem repeat peptide which has been GalNAc-glycosylated with 3 moles GalNAc per repeat using GalNAc-T2. The sharp bands migrating at 100-200 kd are immunoglobulins indicated by IgG.
Cells were further treated with 2 mM GalNAcα-benzyl (lanes 1, 4, 7, 10), 2 mM GalNAcβ-benzyl (lanes 2, 5, 8, 11) or 2 mM GlcNAcα-benzyl (lanes 3, 6, 9, 12). Cells were washed and lysed at 36 hours and the lysates subjected to immunoprecipitation with monoclonal antibodies HMFG2 (lanes 1-6) or 5E5 (lanes 7-12). Immunoprecipitates were analysed by SDS-PAGE and western blot using HMFG2 antibody. Lanes M and C as described in legend to FIG. 7.
We next analysed the expression of MUC1 produced by CHO1d1D/MUC1F-clone2 cells by SDS-PAGE western analysis. […] Cells were further treated with 2 mM GalNAcα-benzyl, GlcNAcα-benzyl or no inhibitor. Cells were washed and lysed at 24 or 48 hours and the lysates subjected to immunoprecipitation with monoclonal antibody HMFG2, which broadly recognize MUC1 glycoforms. Immunoprecipitates were analysed by SDS-PAGE and western blot using HMFG2 antibody to detect MUC1 expression. […] In striking contrast, treatment with GalNAcα-benzyl had significant effect after 48 hours. […] This indicates some heterogeneity in glycosylation.
As shown in Examples 2 and 3, polypeptide GalNAc-transferases contain lectin domains with binding properties for GalNAc-peptides including GalNAc-MUC1 peptides. […] GalNAcβ-benzyl, the β-anomeric configuration of GalNAc-benzyl (there is a β linkage between the N-acetylgalactosamine and the benzyl ring), was custom synthesized by Alberta Research Council (Canada), and its structure was confirmed by mass spectrometry and ^1H-NMR. […] Cells were then treated with 2 mM GalNAcα-benzyl, GalNAcβ-benzyl, or GlcNAcα-benzyl as control (GlcNAcα-benzyl was shown in Example 4 to have no effect). Cells were washed and lysed as described above after 36 hours and the lysates subjected to immunoprecipitation with anti-MUC1 monoclonal antibodies HMFG2 or 5E5. […] FIG. 15 illustrates the same experiment as in FIG. 14 except that the detection antibody is 5E5 and only Tn and STn MUC1 glycoforms are visualised.

[2] = tested on: MUC5AC in HT-29 MTX cells; test: MUC5AC secretion, SDS-PAGE western blot of media with LUM5-1 (FIG. 17); format: cell-based, human; details: 5 mM, continuous culture, media at 14 days
Procedure: FIG. 17 illustrates SDS-PAGE Western analysis of MUC5AC secretion from HT29MTX cells using polyclonal anti-MUC5AC antibody LUM5-1. In order to evaluate GalNAcβ-benzyl as an inhibitor of mucin glycosylation and secretion we used the HT-29 metotrexate (MTX) cultured colon carcinoma cells of mucin secreting phenotype. HT-29 MTX cells have a goblet cell like phenotype with constitutive production of MUC5AC. Cells were continuously grown up to 21 days in the presence of 5 mM GalNAcα-benzyl, 5 mM GalNAcβ-benzyl, 5 mM GlcNAcα-benzyl and without inhibitor. […] In striking contrast, MUC5AC was not detected in the media from cells treated with GalNAcα-benzyl (Lane 3) or GalNAcβ-benzyl (Lane 4). Results shown are from media collected at 14 days.
In order to evaluate GalNAcβ-benzyl as an inhibitor of mucin glycosylation and secretion we used the cultured colon carcinoma cells of mucin secreting phenotypes: HT-29 metotrexate (MTX) cells selected from the HT-29 cell line by culture in the presence of MTX (kind gift from G. Huet, France). The HT-29 MTX cells were selected to yield a goblet cell like phenotype with constitutive production of MUC5AC. In order to ensure proper goblet cell differentiation the HT29MTX cell line were continuously grown up to 21 days in the presence of 5 mM GalNAcα-benzyl, 5 mM GalNAcβ-benzyl, 5 mM GlcNAcα-benzyl and without inhibitor using culture conditions as described in Hennebicq-Reig et al. (Permanent exposure of mucin-secreting HT-29 cells to benzyl-N-acetyl-alpha-D-galactosaminide induces abnormal O-glycosylation of mucins and inhibits constitutive and stimulated MUC5AC secretion. Biochem J. 1998; 334:283-95). […] Furthermore the viscosity of the media from cells with and without inhibitor was evaluated using viscosity micro-measurement.

[3] = target: T1, secreted soluble GalNAc-T4 (Homo sapiens, UniProt Q8N4A0); test: Inhibition of secreted soluble GalNAc-T4 (sT4) binding to GalNAc-MUC1 glycopeptide, ELISA
T1 construct: 6xHis (N); thrombin cleavage site (N); T7 antibody site (N); made in house; host or cells: baculovirus (pAcGP67A), High Five insect cells
Procedure: (§1) Direct binding ELISA assay was developed as follows: Polystyrene microtiter plates (Maxisorb, Nunc, Denmark) were coated with peptides or enzymatically glycosylated glycopeptides in PBS overnight at 4° C. Plates were washed and blocked with 0.1% Tween20 and 0.2% BSA in PBS for 1 h at room temperature, followed by incubation with biotinylated proteins in PBS with 0.05% Tween20 for 2 h at room temperature. After four washes with PBS, plates were incubated with 1:2,000 dilution streptavidin-HRP (Sigma) in PBS for 30 min at room temperature and washed four times with PBS. Development was performed with 0.5 mg/ml o-phenylenediamine and 0.02% H2O2 at room temperature for 15 min, and reaction stopped by adding 100 μl/well of 0.5 N H2SO4. Competitive inhibition assays were done at end-point titers of GalNAc-transferase proteins with one hour preincubations with inhibitor.
(§2) Inhibition experiments were used to further define the binding specificity of GalNAc-T2 and -T4 secreted soluble enzymes as well as lectin domains compared to Helix Pomatia lectin (Table IV).

[4] = tested on: GalNAc-T2 and -T4 secreted soluble enzymes as well as lectin domains; test: Inhibition of GalNAc-transferase lectin binding to GalNAc-glycopeptides, statements on GalNAc-T2 and -T4 together; set-up: species or system human; details: enzymes and isolated lectins
Procedure: as §1
Lectins and antibodies to carbohydrates usually recognize the anomeric configuration of the sugar structures they bind.
as §2

[5] = target: GalNAc-T4 (Homo sapiens, UniProt Q8N4A0); details: 230 mM; cited from earlier work
[6] = target: T2, GalNAc-T2 lectin domain (Homo sapiens, UniProt Q10471); test: Inhibition of GalNAc-T2 lectin domain (T2ld) binding to GalNAc-MUC1 glycopeptide, ELISA
T2 construct: comprises amino acid residues 408-571 of GALNT2; made in house; host or cells: baculovirus (pAcGP67-A), virus made in Sf9, protein produced in High Five insect cells
T2 sequence (Q10471 408-571): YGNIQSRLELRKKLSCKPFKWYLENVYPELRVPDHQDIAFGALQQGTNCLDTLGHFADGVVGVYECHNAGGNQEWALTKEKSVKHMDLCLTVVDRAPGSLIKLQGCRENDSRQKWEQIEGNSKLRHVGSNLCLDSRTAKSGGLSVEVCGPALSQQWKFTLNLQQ
Procedure: as §1
(§3) In binding studies using lectins without biotinylation antibodies to the HIS-tag and the T7-tag, or in some experiments antibodies raised to GalNAc-T2 and -T4 enzymes were used to detect binding.
as §2

[7] = target: T3, secreted soluble GalNAc-T2 (Homo sapiens, UniProt Q10471); test: Inhibition of secreted soluble GalNAc-T2 (sT2) binding to GalNAc-MUC1 glycopeptide, ELISA
T3 construct: 6xHis (N); thrombin cleavage site (N); T7 antibody site (N); made in house; host or cells: baculovirus (pAcGP67A), High Five insect cells
Procedure: as §1, §2

[8] = target: T4, GalNAc-T4 lectin domain (Homo sapiens, UniProt Q8N4A0); test: Inhibition of GalNAc-T4 lectin domain (T4ld) binding to GalNAc-MUC1 glycopeptide, ELISA
T4 construct: comprises amino acid residues 405-578 of GALNT4; made in house; host or cells: baculovirus (pAcGP67-A), virus made in Sf9, protein produced in High Five insect cells
Procedure: as §1, §3, §2

[9] = target: human GalNAc-T4 (UDP-GalNAc:polypeptide N-acetylgalactosaminyltransferase T4) isolated truncated lectin domain (T4ld), HIS-tagged, amino acid residues 405-578 o (Homo sapiens, UniProt Q8N4A0); test: biochemical; format: binding; details: isolated lectin domain
Description: (§4) In order to minimize the size and functional complexity of GalNAc-transferase lectins to be used as probes for binding studies, we used multiple sequence alignment analysis to predict and design suitable expression constructs for isolated lectin domains (FIG. 2). In the present invention a direct binding assay was developed using isolated lectin domains of GalNAc-T4 and -T2 with minimal size (FIG. 5). […] The lectin Helix Pomatia (HP) was used as a control plant lectin with known binding specificity for […].
as §1, §3, §2
(§5) The ligand target used in this Example is a GalNAc-MUC1 glycopeptide produced enzymatically from synthetic peptides.

[10] = target: T5, human GalNAc-T2 (UDP-GalNAc:polypeptide N-acetylgalactosaminyltransferase T2) isolated truncated lectin domain (T2ld), HIS-tagged, amino acid residues 408-571 o (Homo sapiens, UniProt Q10471); format: binding
T5 sequence (Q10471 408-571): T2 sequence (Q10471 408-571)
Description: as §4, §1, §3, §2, §5

T1 sequence (Q8N4A0 36-578 limits assumed): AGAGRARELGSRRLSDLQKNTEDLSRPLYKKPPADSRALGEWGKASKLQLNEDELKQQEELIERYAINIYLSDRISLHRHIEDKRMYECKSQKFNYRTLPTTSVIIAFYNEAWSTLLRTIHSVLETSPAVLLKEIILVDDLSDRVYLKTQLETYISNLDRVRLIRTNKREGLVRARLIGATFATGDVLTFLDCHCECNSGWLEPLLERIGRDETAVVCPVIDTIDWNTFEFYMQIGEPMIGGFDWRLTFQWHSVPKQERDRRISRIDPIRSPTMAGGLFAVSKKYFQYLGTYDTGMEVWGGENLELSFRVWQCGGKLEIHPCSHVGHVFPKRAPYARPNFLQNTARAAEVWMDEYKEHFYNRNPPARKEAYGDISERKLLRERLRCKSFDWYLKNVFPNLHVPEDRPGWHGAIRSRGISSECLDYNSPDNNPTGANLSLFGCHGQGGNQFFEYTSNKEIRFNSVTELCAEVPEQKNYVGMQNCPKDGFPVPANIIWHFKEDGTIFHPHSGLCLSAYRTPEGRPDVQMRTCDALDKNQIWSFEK
T4 sequence (Q8N4A0 405-578): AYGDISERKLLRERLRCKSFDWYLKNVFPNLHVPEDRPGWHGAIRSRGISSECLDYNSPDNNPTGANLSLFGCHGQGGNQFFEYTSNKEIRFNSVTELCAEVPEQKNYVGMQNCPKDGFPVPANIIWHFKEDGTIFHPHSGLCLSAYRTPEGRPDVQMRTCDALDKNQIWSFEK
T3 sequence (Q10471 52-571 limits assumed): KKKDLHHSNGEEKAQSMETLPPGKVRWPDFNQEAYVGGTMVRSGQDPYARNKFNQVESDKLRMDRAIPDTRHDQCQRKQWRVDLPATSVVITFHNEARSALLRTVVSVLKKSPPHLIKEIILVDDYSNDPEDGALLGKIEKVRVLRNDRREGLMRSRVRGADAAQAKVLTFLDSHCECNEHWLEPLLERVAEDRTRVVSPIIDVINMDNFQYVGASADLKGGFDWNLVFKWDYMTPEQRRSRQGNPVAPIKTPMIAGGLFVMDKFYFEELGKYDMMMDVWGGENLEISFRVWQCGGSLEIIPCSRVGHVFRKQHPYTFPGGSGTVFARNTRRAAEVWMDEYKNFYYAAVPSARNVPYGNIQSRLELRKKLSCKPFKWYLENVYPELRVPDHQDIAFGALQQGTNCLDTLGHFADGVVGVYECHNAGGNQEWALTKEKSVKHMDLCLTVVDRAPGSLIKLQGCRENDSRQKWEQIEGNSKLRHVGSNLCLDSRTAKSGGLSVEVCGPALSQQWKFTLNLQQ
Sequence of human GalNAc-T4 (UDP-GalNAc:polypeptide N-acetylgalactosaminyltransferase T4) isolated truncated lectin domain (T4ld), HIS-tagged, amino acid residues 405-578 o (Q8N4A0 405-578): as the sequence (Q8N4A0 405-578) above
Sequence of GalNAc-T4 (Q8N4A0 whole entry, the tested form may be a part): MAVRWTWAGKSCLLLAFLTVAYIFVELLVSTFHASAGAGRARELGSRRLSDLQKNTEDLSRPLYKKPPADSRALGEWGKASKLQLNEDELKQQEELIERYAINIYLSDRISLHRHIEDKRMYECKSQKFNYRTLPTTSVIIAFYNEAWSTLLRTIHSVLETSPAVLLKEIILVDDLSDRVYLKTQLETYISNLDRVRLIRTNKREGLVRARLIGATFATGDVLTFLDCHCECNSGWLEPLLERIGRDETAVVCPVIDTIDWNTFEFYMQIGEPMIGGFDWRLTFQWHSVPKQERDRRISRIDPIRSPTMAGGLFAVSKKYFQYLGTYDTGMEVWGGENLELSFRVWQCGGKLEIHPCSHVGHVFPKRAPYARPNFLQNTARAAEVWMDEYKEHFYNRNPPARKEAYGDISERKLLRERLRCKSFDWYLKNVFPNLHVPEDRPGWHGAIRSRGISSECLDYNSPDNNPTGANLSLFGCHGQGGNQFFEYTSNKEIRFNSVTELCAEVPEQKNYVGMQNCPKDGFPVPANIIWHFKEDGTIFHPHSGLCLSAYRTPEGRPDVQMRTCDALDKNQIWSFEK

SMILES | IC50 [3] | IC50 [6] | IC50 [7] | IC50 [8] | other results
CC(=O)N[C@H]1[C@@H](OCc2ccccc2)O[C@H](CO)[C@@H](O)[C@@H]1O [BzlαGlcNAc] |  |  |  |  | MUC1 expression ([1]; HMFG2 blot, cells grown in GalNAc or Gal and GalNAc, listed as GlcNAcα-benzyl): same glycoforms at similar intensity; also recorded: no effect; SDS-PAGE migration of MUC1 (O-glycosylation) ([1]; cells grown in Gal and GalNAc): no effect; MUC5AC in media (secretion) [2]: detected
CC(=O)N[C@H]1C(O)O[C@H](CO)[C@H](O)[C@@H]1O (stereo partly drawn) [GalNAc, N-acetylgalactosamine] | 1 mM | 37 mM | 15 mM | 5 mM | inhibition of GalNAc-T2 and -T4 lectin mediated binding, in words [4]: selectively inhibited; inhibition of GalNAc-glycopeptide activity of GalNAc-T4 [5]: selective inhibition
OC[C@H]1OC(O)[C@H](O)[C@@H](O)[C@H]1O (stereo partly drawn) [Gal] |  |  |  |  | inhibition of GalNAc-T4 lectin domain binding (in words) [9]: no inhibitory effect; inhibition of GalNAc-T2 lectin domain binding (in words) [10]: no inhibitory effect
OC[C@H]1O[C@@H](O[C@H]2[C@H](O)[C@@H](O)C(O)O[C@@H]2CO)[C@H](O)[C@@H](O)[C@H]1O (stereo partly drawn) [Lactose] | > 100 mM | > 100 mM | > 100 mM | > 100 mM | 
